We go through eleven compounds from patent publication US20240010684A1, “MASP INHIBITORY COMPOUNDS AND USES THEREOF” (BAYER AKTIENGESELLSCHAFT, priority 2020, published 2024).

The target in assay [1] is human MASP2 (Homo sapiens (Human), UniProt O00187). The assay is described as follows: Biochemical human MASP2 assay (FRET substrate). To be noted: Average IC50; recombinant human MASP2; read-out: human MASP2 IC50. The text has this: The MASP1 or MASP2 expression vectors were transfected into the HEK293 (ATCC No. CRL-1573) cell line using Lipofectamine LTX® Reagent (Thermo-Fischer), as described by the manufacturer. The mature form of the recombinant human MASP1 and M[…] were secreted into the culture medium. The MASP1 and M[…] were purified from the conditioned media by affinity chromatography on Ni-NTA Superflow resin (Qiagen) as described by the manufacturer. 2.3 Biochemical Human MASP2 Assay […] The enzymatic reaction was initiated by addition of 25 μl of 60 μM solution of the FRET substrate DABCYL-[…]; […] The microtiter plate was incubated for 60-120 min at the temperature of 32 C. The increase of fluorescence intensity was measured in appropriate fluorescence plate reader (e.g. TECAN Ultra) using excitation wavelength of 340 nm and emission wavelength of 490 nm. IC50 values were calculated from percentage of inhibition of human MASP2 activity as a function of test compound concentration.

For assay [2], the target named is human MASP1 (Homo sapiens (Human), UniProt P48740). Nature of the assay: Biochemical human MASP1 assay (FRET substrate). To be noted: Average IC50; recombinant human MASP1; read-out: human MASP1 IC50. The text has this: A truncated cDNA sequence of human MASP1 encoding the fragment corresponding to the amino acids 297-699 with a C-terminal His Tag and N-terminal Ig-kappa secretion signal (SEQ ID No: 2) was subcloned into the mammalian expression vector pcDNA3.1 (Invitrogen).
The MASP1 or MASP2 expression vectors were transfected into the HEK293 (ATCC No. CRL-1573) cell line using Lipofectamine LTX® Reagent (Thermo-Fischer), as described by the manufacturer. The mature form of the recombinant human MASP1 and MASP2 proteases were secreted into the culture medium. The MASP1 and MASP2 proteins were purified from the conditioned media by affinity chromatography on Ni-NTA Superflow resin (Qiagen) as described by the manufacturer.
2.2 Biochemical Human MASP1 Assay
Recombinant human MASP1 enzyme produced in the HEK 293 cells was diluted in the reaction buffer (50 mM HEPES pH 8,0; 100 mM NaCl; 0,01% CHAPS; 0.5 mM Gluthathione) to the concentration of 20 nM and 25 μl was transferred into each single well of 384-well white microtiter plate (Greiner Bio One 781075). 1 μl of the inhibitor compound solution (dissolved in DMSO, at the corresponding concentration) or pure DMSO as a control was added to the same wells. The enzymatic reaction was initiated by addition of 25 μl of 20 μM solution of the FRET substrate ABZ-[…]-Lys (Dnp)-NH2; (ABZ-2-aminobenzoyl; DNP 2,4-dinitrophenyl; custom synthesis by Jerini Peptide Technologies, Berlin) in the reaction buffer. The microtiter plate was incubated for 60-120 min at the temperature of 32 C. The increase of fluorescence intensity was measured in appropriate fluorescence plate reader (e.g. TECAN Ultra) using excitation wavelength of 320 nm and emission wavelength of 420 nm. IC50 values were calculated from percentage of inhibition of human MASP1 activity as a function of test compound concentration.

*1 amine or outer side, *2 acyl side, *3 side chain or, on linkers, in order; H or OH if unused. Where a SMILES comes first, the peptide text is derived from it. Bridges are numbered along the chain shown (N, C = ends). [ ]: non-standard residue; d: D form. X6 = O=C(CCC(=O)[*:1])NCCCOCCOCCOCCCN[*:2]; Oic = O=C(O)[C@@H]1C[C@@H]2CCCC[C@@H]2N1; tBuAla = CC(C)(C)C[C@H](N)C(=O)O; Pen = CC(C)(S)[C@H](N)C(=O)O; NMeC = CN[C@@H](CS)C(=O)O; Orn = NCCC[C@H](N)C(=O)O; Dab = NCC[C@H](N)C(=O)O; Dap = NC[C@H](N)C(=O)O; Ahx = NCCCCCC(=O)O; Sar = CNCC(=O)O

Sequence of human MASP1 (P48740 other isoform, or with tags, fused parts or gaps): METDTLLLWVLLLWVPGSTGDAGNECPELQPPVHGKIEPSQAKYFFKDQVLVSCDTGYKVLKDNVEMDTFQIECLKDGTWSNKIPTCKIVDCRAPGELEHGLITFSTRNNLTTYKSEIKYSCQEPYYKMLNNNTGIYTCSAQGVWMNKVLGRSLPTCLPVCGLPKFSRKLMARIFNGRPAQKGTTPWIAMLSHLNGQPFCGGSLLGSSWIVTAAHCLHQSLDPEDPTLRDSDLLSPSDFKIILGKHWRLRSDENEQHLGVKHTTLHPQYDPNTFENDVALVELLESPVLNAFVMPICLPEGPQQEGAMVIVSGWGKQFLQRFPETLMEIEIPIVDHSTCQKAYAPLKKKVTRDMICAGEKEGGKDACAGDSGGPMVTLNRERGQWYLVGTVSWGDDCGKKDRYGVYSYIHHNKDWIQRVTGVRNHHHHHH
Sequence of human MASP2 (O00187 other isoform, or with tags, fused parts or gaps): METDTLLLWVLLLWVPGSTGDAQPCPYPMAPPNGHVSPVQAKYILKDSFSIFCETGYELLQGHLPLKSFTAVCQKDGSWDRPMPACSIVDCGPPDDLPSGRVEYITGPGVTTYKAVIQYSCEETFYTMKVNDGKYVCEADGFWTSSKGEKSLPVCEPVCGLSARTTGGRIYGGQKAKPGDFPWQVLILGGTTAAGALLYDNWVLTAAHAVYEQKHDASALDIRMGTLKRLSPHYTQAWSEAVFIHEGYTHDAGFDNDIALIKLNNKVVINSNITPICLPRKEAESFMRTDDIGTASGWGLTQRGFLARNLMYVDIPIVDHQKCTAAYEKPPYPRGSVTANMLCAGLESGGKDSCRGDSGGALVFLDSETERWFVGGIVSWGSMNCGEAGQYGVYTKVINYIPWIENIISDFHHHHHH

As for `CC[C@H](C)[C@@H]1NC(=O)CNC(=O)CNC(=O)[C@H](C)NC(=O)[C@@H](CC(=O)O)NC(=O)[C@@H]2CCCN2C(=O)[C@H]([C@@H](C)CC)NC(=O)[C@@H]2CSSC[C@H](NC1=O)C(=O)N[C@@H](CO)C(=O)N[C@@H](CCCNC(=N)N)C(=O)N[C@@H](CO)C(=O)N[C@@H](CC(C)(C)C)C(=O)N1CCC[C@H]1C(=O)N1CCC[C@H]1C(=O)N[C@@H]([C@@H](C)CC)C(=O)N2C` [Example 47] (cyclo(AGGICSRS[tBuAla]PPI[NMeC]IP[dD]); disulfide 5-13), the IC50 in assay [1] was determined as 0.066 µM; in assay [2], 0.0082 µM.

Regarding `CC[C@H](C)[C@@H]1NC(=O)CNC(=O)CCCCCNC(=O)C[C@@H](C(N)=O)NC(=O)[C@@H]2CCCN2C(=O)[C@H]([C@@H](C)CC)NC(=O)[C@H]2NC(=O)[C@H]([C@@H](C)CC)NC(=O)[C@@H]3CCCN3C(=O)[C@@H]3CCCN3C(=O)[C@H](CC(C)(C)C)NC(=O)[C@H](CO)NC(=O)[C@H](CCCNC(=N)N)NC(=O)[C@H](CO)NC(=O)[C@H](CSSC2(C)C)NC1=O` [Example 48] ([Ahx]GICSRS[tBuAla]PPI[Pen]IPD-NH2; disulfide 4-12; lactam N-15), the concentration for half-maximal inhibition (IC50) in assay [1] is 0.07 µM; in assay [2], 0.01 µM.

For the compound `CC[C@H](C)[C@@H]1NC(=O)CNC(=O)CCCCCNC(=O)C[C@@H](C(N)=O)NC(=O)[C@@H]2CCCN2C(=O)[C@H]([C@@H](C)CC)NC(=O)[C@H]2NC(=O)[C@H]([C@@H](C)CC)NC(=O)[C@@H]3C[C@@H]4CCCC[C@@H]4N3C(=O)[C@@H]3CCCN3C(=O)[C@H](CC(C)C)NC(=O)[C@H](CO)NC(=O)[C@H](CCCNC(=N)N)NC(=O)[C@H](CO)NC(=O)[C@H](CSSC2(C)C)NC1=O` [Example 49] ([Ahx]GICSRSLP[Oic]I[Pen]IPD-NH2; disulfide 4-12; lactam N-15), the IC50 in assay [1] is 0.14 µM; in assay [2], 0.019 µM.

In the case of `CC[C@H](C)[C@@H]1NC(=O)[C@H](C)NC(=O)CCC(=O)NCCCOCCOCCOCCCNC(=O)[C@H](CC(=O)O)NC(=O)[C@@H]2CCCN2C(=O)[C@H]([C@@H](C)CC)NC(=O)[C@H]2NC(=O)[C@H]([C@@H](C)CC)NC(=O)[C@@H]3CCCN3C(=O)[C@@H]3CCCN3C(=O)[C@H](CC(C)(C)C)NC(=O)[C@H](CO)NC(=O)[C@H](CCCNC(=N)N)NC(=O)[C@H](CO)NC(=O)[C@H](CSSC2(C)C)NC1=O` [Example 63] (AICSRS[tBuAla]PPI[Pen]IPD; disulfide 3-11; linker N-C via X6), the IC50 was found to be 0.17 µM in assay [1] and 0.028 µM in assay [2].

`CC[C@H](C)[C@@H]1NC(=O)CNC(=O)[C@H](CCCN)NC(=O)[C@H]([C@@H](C)CC)NC(=O)[C@H]2NC(=O)[C@H]([C@@H](C)CC)NC(=O)[C@@H]3CCCN3C(=O)[C@@H]3CCCN3C(=O)[C@H](CC(C)(C)C)NC(=O)[C@H](CO)NC(=O)[C@H](CCCNC(=N)N)NC(=O)[C@H](CO)NC(=O)[C@H](CSSC2(C)C)NC1=O` [Example 65, N-{3-[(5aS,11S,14S,17S,20S,23R,26S,32S,35S,38R,41S,43aS)-32-(3-aminopropyl)-26,35,41-tri[(2S)-butan-2-yl]-11-(2,2-dimethylpropyl)-14,20-bis(hydroxymethyl)-44,44-dimethyl-5,10,13,16,19,22,25,28,31,34,37,40,43-tridecaoxodotetracontahydro-5H-23,38-(methanodithiomethano)dipyrrolo[1,2-a:1′,2′-d][1,4,7,10,13,16,19,22,25,28,31,34,37]tridecaazacyclononatriacontin-17-yl]propyl}guanidine] (cyclo(CSRS[tBuAla]PPI[Pen]I[Orn]GI); disulfide 1-9): the concentration for half-maximal inhibition (IC50) in assay [1] came to 0.54 µM; in assay [2], 0.049 µM.

`CC[C@H](C)[C@@H]1NC(=O)[C@@H](N)CCCNC(=O)[C@@H]2CCCN2C(=O)[C@H]([C@@H](C)CC)NC(=O)[C@H]2NC(=O)[C@H]([C@@H](C)CC)NC(=O)[C@@H]3CCCN3C(=O)[C@@H]3CCCN3C(=O)[C@H](CC(C)(C)C)NC(=O)[C@H](CO)NC(=O)[C@H](CCCNC(=N)N)NC(=O)[C@H](CO)NC(=O)[C@H](CSSC2(C)C)NC1=O` [Example 71, N-{3-[(6S,9S,12S,15S,18R,21S,24S,29aS,35S,38R,41S,43aS,48aS)-24-amino-21,35,41-tri[(2S)-butan-2-yl]-6-(2,2-dimethylpropyl)-9,15-bis(hydroxymethyl)-49,49-dimethyl-5,8,11,14,17,20,23,29,34,37,40,43,48-tridecaoxohexatetracontahydro-1H,5H-18,38-(methanodithiomethano)tripyrrolo[2,1-c:2′,1′-o:2″,1″-r][1,4,7,10,13,16,19,22,25,28,31,34,37]tridecaazacyclodotetracontin-12-yl]propyl}guanidine] (H-[Orn]ICSRS[tBuAla]PPI[Pen]IP; lactam 1-C; disulfide 3-11): the values for the IC50 in assay [1] and in assay [2] were 0.024 µM and 0.021 µM, respectively.

`CC[C@H](C)[C@@H]1NC(=O)[C@H](CCN)NC(=O)[C@H](CN)NC(=O)[C@H]([C@@H](C)CC)NC(=O)[C@H]2NC(=O)[C@H]([C@@H](C)CC)NC(=O)[C@@H]3CCCN3C(=O)[C@@H]3CCCN3C(=O)[C@H](CC(C)(C)C)NC(=O)[C@H](CO)NC(=O)[C@H](CCCNC(=N)N)NC(=O)[C@H](CO)NC(=O)[C@H](CSSC2(C)C)NC1=O` [Example 73] (cyclo(CSRS[tBuAla]PPI[Pen]I[Dap][Dab]I); disulfide 1-9): the IC50 in assay [1] was determined as 0.43 µM; in assay [2], 0.042 µM.

With `CC[C@H](C)[C@@H]1NC(=O)[C@H](C)NC(=O)CCCCCNC(=O)CC[C@@H](C(N)=O)NC(=O)[C@@H]2CCCN2C(=O)[C@H]([C@@H](C)CC)NC(=O)[C@H]2NC(=O)[C@H]([C@@H](C)CC)NC(=O)[C@@H]3C[C@@H]4CCCC[C@@H]4N3C(=O)[C@@H]3CCCN3C(=O)[C@H](CC(C)C)NC(=O)[C@H](CO)NC(=O)[C@H](CCCNC(=N)N)NC(=O)[C@H](CO)NC(=O)[C@H](CSSC2(C)C)NC1=O` [Example 74] ([Ahx]AICSRSLP[Oic]I[Pen]IPE-NH2; disulfide 4-12; lactam N-15), the IC50 in assay [1] was 0.16 µM; in assay [2] it was 0.014 µM.

As to `CC[C@H](C)[C@@H]1NC(=O)CNC(=O)CN(C)C(=O)CCCCCNC(=O)CC[C@@H](C(N)=O)NC(=O)[C@@H]2CCCN2C(=O)[C@H]([C@@H](C)CC)NC(=O)[C@H]2NC(=O)[C@H]([C@@H](C)CC)NC(=O)[C@@H]3C[C@@H]4CCCC[C@@H]4N3C(=O)[C@@H]3CCCN3C(=O)[C@H](CC(C)C)NC(=O)[C@H](CO)NC(=O)[C@H](CCCNC(=N)N)NC(=O)[C@H](CO)NC(=O)[C@H](CSSC2(C)C)NC1=O` [Example 76] ([Ahx][Sar]GICSRSLP[Oic]I[Pen]IPE-NH2; disulfide 5-13; lactam N-16), the IC50 in assay [1] amounted to 0.18 µM; in assay [2], 0.0097 µM.

In the case of `CC[C@H](C)[C@@H]1NC(=O)[C@H](C)NC(=O)CN(C)C(=O)CCCCCNC(=O)CC[C@@H](C(N)=O)NC(=O)[C@@H]2CCCN2C(=O)[C@H]([C@@H](C)CC)NC(=O)[C@H]2NC(=O)[C@H]([C@@H](C)CC)NC(=O)[C@@H]3C[C@@H]4CCCC[C@@H]4N3C(=O)[C@@H]3CCCN3C(=O)[C@H](CC(C)C)NC(=O)[C@H](CO)NC(=O)[C@H](CCCNC(=N)N)NC(=O)[C@H](CO)NC(=O)[C@H](CSSC2(C)C)NC1=O` [Example 77] ([Ahx][Sar]AICSRSLP[Oic]I[Pen]IPE-NH2; disulfide 5-13; lactam N-16), the half-maximal inhibitory concentration (IC50) in assay [1] came out at 0.21 µM; in assay [2], 0.011 µM.

On to `CC[C@H](C)[C@@H]1NC(=O)[C@@H](C)NC(=O)CCCCCNC(=O)CC[C@@H](C(N)=O)NC(=O)[C@@H]2CCCN2C(=O)[C@H]([C@@H](C)CC)NC(=O)[C@H]2NC(=O)[C@H]([C@@H](C)CC)NC(=O)[C@@H]3C[C@@H]4CCCC[C@@H]4N3C(=O)[C@@H]3CCCN3C(=O)[C@H](CC(C)C)NC(=O)[C@H](CO)NC(=O)[C@H](CCCNC(=N)N)NC(=O)[C@H](CO)NC(=O)[C@H](CSSC2(C)C)NC1=O` [Example 79] ([Ahx][dA]ICSRSLP[Oic]I[Pen]IPE-NH2; disulfide 4-12; lactam N-15), for which the values for the IC50 in assay [1] and in assay [2] were 0.045 µM and 0.022 µM, respectively.

As a reminder, the IC50 is the midpoint of a concentration-inhibition curve.
